Assay results as given in patent publication US11161846B2, “Substituted pyrazolo[4,3-b]pyridines and their use as GluN2B receptor modulators” (JANSSEN PHARMACEUTICA NV, priority 2019, dated 2021).

Target: T1, human GluN1/GluN2B NMDA receptors (Homo sapiens, UniProt Q05586+Q13224)
T1 construct: expressed in transfected cells
Test: Calcium flux (FLIPR) assay on cloned human NR1/GluN2B ion channels expressed in mammalian cells, standard assay
Format: cell-based
Settings: glutamate ~EC40 and 10 μM glycine, stable cell line with Tet-On induced expression
Method: Effects of Test Articles on Cloned Human NR1/GluN2B Ion Channels Expressed in Mammalian Cells
NMDA receptors are ion channels that are highly permeable to Ca^2+ ions, rendering it possible to monitor NMDA receptor function using cell-based calcium flux assay. In this assay, co-agonists glutamate and glycine are added to cells heterologously expressing human GluN1/GluN2B NMDA receptors to initiate cellular Ca^2+ influx. The time course of the changes in intracellular calcium is measured using a fluorescent dye and a FLIPR (Fluorometric Imaging Plate Reader) device.
Twenty four hours before measurements, the expression of the NMDA receptors in the stable cell line is induced with Tet-On inducible system in the presence of a non-selective NMDA receptor blocker. On the day of the experiment, cell culture media is carefully washed and the cells are loaded with Calcium 5 Dye Kit (Molecular Devices) in dye loading buffer containing 137 mM NaCl, 4 mM KCl, 2 mM CaCl2, 0.5 mM MgCl2 (standard assay) or 1.5 mM MgCl2 (HTS assay), 10 mM HEPES and 5 mM D-glucose; pH 7.4. After 1 h incubation at the room temperature, the dye is washed away with the assay buffer (137 mM NaCl (standard assay) or 150 mM (HTS assay), 4 mM KCl (standard assay) or 3 mM (HTS assay), 2 mM CaC2, 0.01 mM EDTA, 10 mM HEPES and 5 mM D-glucose; pH 7.4) In the FLIPR TETRA reader, various concentrations of the test compounds are added to the cells for 5 min while fluorescence is monitored to detect potential agonist activity. Next, co-agonists, glutamate and glycine are added for another 5 minutes. The concentration of glutamate corresponding to ˜EC40 (standard assay) or EC40 (HTS assay) is used to maximize the assay's signal window and ability to detect NMDA receptor antagonists and negative allosteric modulators. A saturating concentration (10 μM) of glycine is also present in the assay. A non-selective NMDA receptor antagonist, (+)MK-801 is used as a positive control for antagonist activity. The fluorescent signal in the presence of test compounds is quantified and normalized to the signal defined by the appropriate control wells.

T1 sequence (Q13224 27-1484, other chains not shown): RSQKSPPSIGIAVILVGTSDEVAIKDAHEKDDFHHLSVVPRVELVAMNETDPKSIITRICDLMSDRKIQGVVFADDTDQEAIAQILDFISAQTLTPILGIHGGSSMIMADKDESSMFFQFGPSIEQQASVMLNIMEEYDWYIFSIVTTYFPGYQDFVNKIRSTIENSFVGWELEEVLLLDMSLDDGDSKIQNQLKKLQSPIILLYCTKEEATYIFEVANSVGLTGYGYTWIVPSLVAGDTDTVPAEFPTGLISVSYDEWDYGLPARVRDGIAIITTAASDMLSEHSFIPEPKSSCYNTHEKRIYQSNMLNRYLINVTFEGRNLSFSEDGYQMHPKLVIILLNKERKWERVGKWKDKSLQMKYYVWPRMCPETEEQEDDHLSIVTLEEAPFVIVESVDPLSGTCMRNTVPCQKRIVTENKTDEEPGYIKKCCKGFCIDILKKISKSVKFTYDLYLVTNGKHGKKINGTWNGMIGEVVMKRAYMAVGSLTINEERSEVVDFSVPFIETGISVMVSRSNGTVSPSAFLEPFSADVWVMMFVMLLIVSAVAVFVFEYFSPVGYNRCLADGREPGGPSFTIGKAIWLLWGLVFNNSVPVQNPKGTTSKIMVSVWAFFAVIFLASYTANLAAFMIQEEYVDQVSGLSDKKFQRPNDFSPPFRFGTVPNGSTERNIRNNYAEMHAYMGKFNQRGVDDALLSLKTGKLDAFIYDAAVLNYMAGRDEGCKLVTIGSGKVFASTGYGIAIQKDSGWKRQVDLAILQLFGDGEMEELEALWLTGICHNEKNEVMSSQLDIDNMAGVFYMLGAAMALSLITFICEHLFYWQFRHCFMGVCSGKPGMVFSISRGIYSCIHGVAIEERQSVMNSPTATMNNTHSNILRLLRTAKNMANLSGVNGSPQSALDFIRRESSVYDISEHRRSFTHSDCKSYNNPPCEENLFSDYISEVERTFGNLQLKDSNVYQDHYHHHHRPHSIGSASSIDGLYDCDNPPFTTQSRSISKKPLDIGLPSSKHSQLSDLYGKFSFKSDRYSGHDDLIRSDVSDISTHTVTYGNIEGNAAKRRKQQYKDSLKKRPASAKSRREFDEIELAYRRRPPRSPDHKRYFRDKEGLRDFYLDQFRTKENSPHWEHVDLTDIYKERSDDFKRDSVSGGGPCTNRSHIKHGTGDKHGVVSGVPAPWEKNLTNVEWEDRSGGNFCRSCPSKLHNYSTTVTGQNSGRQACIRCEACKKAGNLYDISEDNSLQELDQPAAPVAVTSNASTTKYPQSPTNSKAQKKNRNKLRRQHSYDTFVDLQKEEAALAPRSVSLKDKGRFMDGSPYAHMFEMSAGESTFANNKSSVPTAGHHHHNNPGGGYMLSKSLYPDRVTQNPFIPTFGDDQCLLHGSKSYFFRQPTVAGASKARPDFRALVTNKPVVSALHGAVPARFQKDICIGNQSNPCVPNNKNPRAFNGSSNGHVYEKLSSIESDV

Compound | IC50 [µM]
OC(Cn1ncc2ncc(-c3cc(F)c(F)c(F)c3)cc21)C1CC1 (racemic) [Example 10, (R/S)-1-Cyclopropyl-2-[6-(3,4,5-trifluorophenyl)pyrazolo[4,3-b]pyridin-1-yl]ethanol] | 0.696
CN1C(=O)OCC1Cn1ncc2ncc(-c3ccc(F)c(OC(F)F)c3)cc21 (racemic) [Example 123, (RS)-4-((6-(3-(difluoromethoxy)-4-fluorophenyl)-1H-pyrazolo[4,3-b]pyridin-1-yl)methyl)-3-methyloxazolidin-2-one] | 2.83
CC(C)C(O)Cn1ncc2ncc(-c3ccccc3)cc21 (racemic) [Example 96, (RS)-3-Methyl-1-(6-phenylpyrazolo[4,3-b]pyridin-1-yl)butan-2-ol] | 1.53
COC(Cn1ncc2ncc(-c3cc(F)c(F)c(F)c3)cc21)C1CC1 (racemic) [Example 11, (R/S)-1-(2-Cyclopropyl-2-methoxy-ethyl)-6-(3,4,5-trifluorophenyl)pyrazolo[4,3-b]pyridine] | 1.78
CCC(O)Cn1ncc2ncc(-c3cccc(C(C)(F)F)c3)cc21 (racemic) [Example 95, (RS)-1-[6-[3-(1,1-Difluoroethyl)phenyl]pyrazolo[4,3-b]pyridin-1-yl]butan-2-ol] | 0.272
O=C(Cn1ncc2ncc(-c3ccc(F)c(C(F)F)c3)cc21)c1ccsc1 [Example 138, 2-[6-[3-(Difluoromethyl)-4-fluoro-phenyl]pyrazolo[4,3-b]pyridin-1-yl]-1-(3-thienyl)ethanone] | 0.1
O=C1NCC(Cn2ncc3ncc(-c4ccc(Cl)c(OC(F)F)c4)cc32)O1 (racemic) [Example 126, (RS)-5-[[6-[4-Chloro-3-(difluoromethoxy)phenyl]pyrazolo[4,3-b]pyridin-1-yl]methyl]oxazolidin-2-one] | 0.306
O=C1NC[C@H](Cn2ncc3ncc(-c4ccc(F)c(C(F)F)c4)cc32)O1 [Example 22, (R)-5-[[6-[3-(Difluoromethyl)-4-fluoro-phenyl]pyrazolo[4,3-b]pyridin-1-yl]methyl]oxazolidin-2-one] | 0.187
CC[S+]([O-])Cn1ncc2ncc(-c3ccc(F)c(F)c3)cc21 (racemic) [Example 82, (RS) 6-(3,4-Difluorophenyl)-1-(ethylsulfinylmethyl)pyrazolo[4,3-b]pyridine] | 0.893
CC(C)C(O)Cn1ncc2ncc(-c3cccc(C(F)(F)F)c3)cc21 (racemic) [Example 3, (RS)-3-Methyl-1-[6-[3-(trifluoromethyl)phenyl]pyrazolo[4,3-b]pyridin-1-yl]butan-2-ol] | 0.567
Cc1cc(-c2cnc3cnn(C[C@@H](O)C4CC4)c3c2)ccc1F [Example 103, (S)-1-Cyclopropyl-2-[6-(4-fluoro-3-methyl-phenyl)pyrazolo[4,3-b]pyridin-1-yl]ethanol] | 0.272
O=C1O[C@@H](Cn2ncc3ncc(-c4ccc(F)c(C(F)F)c4)cc32)CN1C1CC1 [Example 136, (R)-3-Cyclopropyl-5-[[6-[3-(difluoromethyl)-4-fluoro-phenyl]pyrazolo[4,3-b]pyridin-1-yl]methyl]oxazolidin-2-one] | 0.997
Fc1ccc(-c2cnc3cnn(CC(F)(F)C4CC4)c3c2)cc1OC(F)F [Example 109, 1-(2-Cyclopropyl-2,2-difluoro-ethyl)-6-[3-(difluoromethoxy)-4-fluoro-phenyl]pyrazolo[4,3-b]pyridine] | 0.069
Cc1cc(-c2cnc3cnn(CC(O)C4CC4)c3c2)ccc1F (racemic) [Example 101, (RS)-1-Cyclopropyl-2-[6-(4-fluoro-3-methyl-phenyl)pyrazolo[4,3-b]pyridin-1-yl]ethanol] | 0.167
O=C(Cn1ncc2ncc(-c3ccccc3F)cc21)C1CC1 [Example 58, 1-Cyclopropyl-2-[6-(2-fluorophenyl)pyrazolo[4,3-b]pyridin-1-yl]ethanone] | 0.148
CCN1C[C@H](Cn2ncc3ncc(-c4ccc(F)c(C(F)F)c4)cc32)OC1=O [Example 133, (R)-5-[[6-[3-(Difluoromethyl)-4-fluoro-phenyl]pyrazolo[4,3-b]pyridin-1-yl]methyl]-3-ethyl-oxazolidin-2-one] | 0.204
CN1C[C@H](Cn2ncc3ncc(-c4ccc(F)c(C(F)F)c4)cc32)CC1=O [Example 122, (R)-4-[[6-[3-(Difluoromethyl)-4-fluoro-phenyl]pyrazolo[4,3-b]pyridin-1-yl]methyl]-1-methyl-pyrrolidin-2-one] | 0.12
Cc1cc(-c2cnc3cnn(CC(O)C(C)C)c3c2)ccc1F (racemic) [Example 8, (RS)-1-[6-(4-Fluoro-3-methyl-phenyl)pyrazolo[4,3-b]pyridin-1-yl]-3-methyl-butan-2-ol] | 0.222
CCC(O)Cn1ncc2ncc(-c3ccc(F)c(F)c3)cc21 (racemic) [Example 91, (RS)-1-[6-(3,4-Difluorophenyl)pyrazolo[4,3-b]pyridin-1-yl]butan-2-ol] | 0.526
ON=C(Cn1ncc2ncc(-c3cccc(C(F)(F)F)c3)cc21)C1CC1 (mixture of isomers) [Example 106, (E/Z)-1-Cyclopropyl-2-[6-[3-(trifluoromethyl)phenyl]pyrazolo[4,3-b]pyridin-1-yl]ethanone oxime] | 1.49

Molecules with a lower IC50, results first:

IC50 [µM] | Compound
0.061 | CC(C)C(=O)Cn1ncc2ncc(-c3cccc(C(F)(F)F)c3)cc21 [Example 2, 3-Methyl-1-[6-[3-(trifluoromethyl)phenyl]pyrazolo[4,3-b]pyridin-1-yl]butan-2-one]
0.046 | O=C(Cn1ncc2ncc(-c3cccc(C(F)(F)F)c3)cc21)C1CC1 [Example 62, 1-Cyclopropyl-2-[6-[3-(trifluoromethyl)phenyl]pyrazolo[4,3-b]pyridin-1-yl]ethanone]
0.035 | CCC(=O)Cn1ncc2ncc(-c3cccc(C(C)(F)F)c3)cc21 [Example 31, 1-[6-[3-(1,1-Difluoroethyl)phenyl]pyrazolo[4,3-b]pyridin-1-yl]butan-2-one]
0.023 | Fc1ccc(-c2cnc3cnn(CC4CCOC4)c3c2)cc1C(F)F (racemic) [Example 113, (RS)-6-[3-(Difluoromethyl)-4-fluoro-phenyl]-1-(tetrahydrofuran-3-ylmethyl)pyrazolo[4,3-b]pyridine]
0.016 | O=C(Cn1ncc2ncc(-c3cccc(Cl)c3F)cc21)C1CC1 [Example 67, 2-[6-(3-Chloro-2-fluoro-phenyl)pyrazolo[4,3-b]pyridin-1-yl]-1-cyclopropyl-ethanone]
0.015 | CC(=O)Cn1ncc2ncc(-c3ccc(F)c(C)c3)cc21 [Example 24, 1-[6-(4-Fluoro-3-methyl-phenyl)pyrazolo[4,3-b]pyridin-1-yl]propan-2-one]
0.014 | O=C(Cn1ncc2ncc(-c3ccc(F)c(OC(F)F)c3)cc21)C1CC1 [Example 77, 1-Cyclopropyl-2-[6-[3-(difluoromethoxy)-4-fluoro-phenyl]pyrazolo[4,3-b]pyridin-1-yl]ethanone]
0.013 | O=C(Cn1ncc2ncc(-c3ccc(F)cc3)cc21)C1CC1 [Example 59, 1-Cyclopropyl-2-[6-(4-fluorophenyl)pyrazolo[4,3-b]pyridin-1-yl]ethanone]
0.008 | O=C(Cn1ncc2ncc(-c3ccc(Cl)s3)cc21)C1CC1 [Example 55, 2-[6-(5-Chloro-2-thienyl)pyrazolo[4,3-b]pyridin-1-yl]-1-cyclopropyl-ethanone]
